Laboratory results taken from patent US12440484B2, “1,3,4-oxadiazole homophthalimide derivative compounds as histone deacetylase 6 inhibitor, and the pharmaceutical composition comprising the same” (Chong Kun Dang Pharmaceutical Corp., priority 2019, dated 2025).

Tests used:
[1] = molecular target: HDAC6 human recombinant (Homo sapiens (Human), UniProt Q9UBN7); assay: HDAC enzyme activity inhibition (in vitro), HDAC6 assay; assay type: biochemical; settings: samples at 0.1, 1, 10, 100 and 1000 nM; 37° C. 60 minutes; fluorescence Ex 390, Em 460
Sequence of HDAC6 human recombinant (Q9UBN7 whole entry): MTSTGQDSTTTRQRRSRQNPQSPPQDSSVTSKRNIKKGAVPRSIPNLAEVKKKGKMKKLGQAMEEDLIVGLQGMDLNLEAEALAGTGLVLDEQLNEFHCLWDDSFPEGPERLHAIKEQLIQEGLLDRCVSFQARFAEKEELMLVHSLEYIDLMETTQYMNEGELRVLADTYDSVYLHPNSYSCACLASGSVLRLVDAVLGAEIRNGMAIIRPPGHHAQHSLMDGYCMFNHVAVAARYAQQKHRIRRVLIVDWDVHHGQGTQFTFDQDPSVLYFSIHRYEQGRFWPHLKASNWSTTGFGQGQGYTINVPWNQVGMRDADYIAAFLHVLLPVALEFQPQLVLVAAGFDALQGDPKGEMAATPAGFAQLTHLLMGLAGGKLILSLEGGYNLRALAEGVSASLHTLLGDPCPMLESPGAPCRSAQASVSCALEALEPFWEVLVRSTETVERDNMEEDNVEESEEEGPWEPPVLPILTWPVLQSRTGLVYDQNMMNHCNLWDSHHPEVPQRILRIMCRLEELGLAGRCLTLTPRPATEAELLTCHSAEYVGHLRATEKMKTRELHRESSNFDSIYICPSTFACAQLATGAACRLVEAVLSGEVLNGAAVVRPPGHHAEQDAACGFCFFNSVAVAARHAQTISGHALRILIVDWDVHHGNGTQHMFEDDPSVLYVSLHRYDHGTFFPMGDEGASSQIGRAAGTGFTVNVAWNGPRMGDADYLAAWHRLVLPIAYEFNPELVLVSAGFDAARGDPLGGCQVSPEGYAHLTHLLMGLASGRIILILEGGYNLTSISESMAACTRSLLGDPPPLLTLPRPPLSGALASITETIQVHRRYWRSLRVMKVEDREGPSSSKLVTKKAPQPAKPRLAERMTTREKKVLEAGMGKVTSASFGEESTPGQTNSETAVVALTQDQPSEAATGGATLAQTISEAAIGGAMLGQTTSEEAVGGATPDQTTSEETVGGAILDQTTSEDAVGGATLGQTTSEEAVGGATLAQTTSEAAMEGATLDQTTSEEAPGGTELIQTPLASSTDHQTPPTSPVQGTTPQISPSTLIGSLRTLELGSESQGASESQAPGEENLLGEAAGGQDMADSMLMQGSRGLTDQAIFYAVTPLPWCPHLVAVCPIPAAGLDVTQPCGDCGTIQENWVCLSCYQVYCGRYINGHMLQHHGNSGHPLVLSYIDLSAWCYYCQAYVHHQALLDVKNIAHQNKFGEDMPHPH

[2] = molecular target: HDAC1 (Homo sapiens (Human), UniProt Q13547); assay: HDAC enzyme activity inhibition (in vitro), HDAC1 Fluorimetric Drug Discovery Assay Kit; assay type: biochemical; settings: samples at 100, 1000 and 10000 nM; 37° C. 60 minutes; fluorescence Ex 390, Em 460
Sequence of HDAC1 (Q13547 whole entry): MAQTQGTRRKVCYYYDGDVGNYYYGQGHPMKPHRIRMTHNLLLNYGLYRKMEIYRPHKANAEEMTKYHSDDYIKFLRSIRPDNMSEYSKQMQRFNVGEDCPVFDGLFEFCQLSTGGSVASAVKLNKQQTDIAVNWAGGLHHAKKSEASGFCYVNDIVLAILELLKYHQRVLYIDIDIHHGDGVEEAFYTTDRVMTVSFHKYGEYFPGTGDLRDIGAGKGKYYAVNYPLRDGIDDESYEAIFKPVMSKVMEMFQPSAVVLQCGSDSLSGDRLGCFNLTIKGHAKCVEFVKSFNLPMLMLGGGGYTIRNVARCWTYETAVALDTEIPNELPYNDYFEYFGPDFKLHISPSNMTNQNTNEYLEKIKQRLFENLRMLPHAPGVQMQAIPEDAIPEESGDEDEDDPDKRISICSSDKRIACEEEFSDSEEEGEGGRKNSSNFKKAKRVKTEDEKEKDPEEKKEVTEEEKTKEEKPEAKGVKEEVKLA

| SMILES | IC50 [1] | IC50 [2] |
| --- | --- | --- |
| CC1(C)C(=O)N(Cc2ncc(-c3nnc(C(F)F)o3)cn2)C(=O)c2ccc(Br)cc21 [Compound 152, 6-bromo-2-((5-(5-(difluoromethyl)-1,3,4-oxadiazole-2-yl)pyrimidine-2-yl)methyl)-4,4-dimethylisoquinoline-1,3(2H,4H)-dione] | 125 nM | > 10000 nM |
| CC1(C)C(=O)N(Cc2ccc(-c3nnc(C(F)F)o3)cn2)C(=O)c2c(-c3cccnc3)cccc21 [Compound 85, 2-((5-(5-(difluoromethyl)-1,3,4-oxadiazole-2-yl)pyridine-2-yl)methyl)-4,4-dimethyl-8-(pyridine-3-yl)isoquinoline-1,3(2H,4H)-dione] | 50 nM | > 10000 nM |
| COCCN1CCN(c2ccc3c(c2)C(C)(C)C(=O)N(Cc2ccc(-c4nnc(C(F)F)o4)cn2)C3=O)CC1 [Compound 35, 2-((5-(5-(difluoromethyl)-1,3,4-oxadiazole-2-yl)pyridine-2-yl)methyl)-6-(4-(2-methoxyethyl)piperazine-1-yl)-4,4-dimethylisoquinoline-1,3(2H,4H)-dione] | 26 nM | > 10000 nM |
| CN1CCC(c2ccc3c(c2)C(C)(C)C(=O)N(Cc2ccc(-c4nnc(C(F)F)o4)cn2)C3=O)CC1 [Compound 44, 2-((5-(5-(difluoromethyl)-1,3,4-oxadiazole-2-yl)pyridine-2-yl)methyl)-4,4-dimethyl-6-(1-methylpiperidine-4-yl)isoquinoline-1,3(2H,4H)-dione] | 19 nM | > 10000 nM |
